From the supplement of paper PMC10307832

Assays:
Assay in all cases: relative viability (nuclei count vs DMSO), 5 days (fraction); higher = more cells survive
Tosedostat + Vorinostat = compound: CC(C)C[C@@H](C(=O)N[C@H](C(=O)OC1CCCC1)c1ccccc1)[C@H](O)C(=O)NO [Tosedostat] + O=C(CCCCCCC(=O)Nc1ccccc1)NO [Vorinostat] (partner 1 µM)
In short: (§1)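 Lung cancer cell lines, seeded in 1536-well plates, were treated the following day by pin tool with a single drug or with five library-drug doses (not always all listed) in √10 steps on top of a fixed anchor-drug dose. Cells were fixed and nuclei stained in one step after 5 days, and nuclei were counted. Relative viability is the nuclei count for treated wells divided by that for vehicle wells, reported as medians of duplicate plates.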

[1] = compound: CC1=NN=C(O1)C2=NN=C(C=C2)N3CCC(CC3)OC4=C(C=CC(=C4)F)Cl + CC1(C)CCC(c2ccc(Cl)cc2)=C(CN2CCN(c3ccc(C(=O)NS(=O)(=O)c4ccc(N[C@H](CCN5CCOCC5)CSc5ccccc5)c(S(=O)(=O)C(F)(F)F)c4)cc3)CC2)C1 [Navitoclax] (partner 0.5 µM)
In short: as §1

Tosedostat + OSI-027 = compound: CC(C)C[C@@H](C(=O)N[C@H](C(=O)OC1CCCC1)c1ccccc1)[C@H](O)C(=O)NO [Tosedostat] + COc1cccc2cc(-c3nc([C@H]4CC[C@H](C(=O)O)CC4)n4ncnc(N)c34)[nH]c12 [OSI-027] (partner 0.5 µM)
In short: as §1

[2] = compound: CC1=NN=C(O1)C2=NN=C(C=C2)N3CCC(CC3)OC4=C(C=CC(=C4)F)Cl + C[C@]1(O)C[C@@H](c2nc(-c3ccc4ccc(-c5ccccc5)nc4c3)c3c(N)nccn32)C1 [Linsitinib] (partner 1 µM)
In short: as §1

Row | Cell Line | relative viability (Tosedostat + Vorinostat; first compound 0.02 µM) | relative viability (Tosedostat + Vorinostat; first compound 0.06325 µM) | relative viability (Tosedostat + Vorinostat; first compound 0.2 µM) | relative viability (Tosedostat + Vorinostat; first compound 0.6325 µM) | relative viability (Tosedostat + Vorinostat; first compound 2 µM) | relative viability ([1]; first compound 0.253 µM) | relative viability ([1]; first compound 0.8 µM) | relative viability ([1]; first compound 2.53 µM) | relative viability ([1]; first compound 8 µM) | relative viability (Tosedostat + OSI-027; first compound 0.02 µM) | relative viability (Tosedostat + OSI-027; first compound 0.06325 µM) | relative viability (Tosedostat + OSI-027; first compound 0.2 µM) | relative viability (Tosedostat + OSI-027; first compound 0.6325 µM) | relative viability (Tosedostat + OSI-027; first compound 2 µM) | relative viability ([2]; first compound 0.253 µM) | relative viability ([2]; first compound 0.8 µM) | relative viability ([2]; first compound 2.53 µM) | relative viability ([2]; first compound 8 µM)
1 | SK-MES-1 | 1.13 | 1.03 | 0.963 | 1.1 | 1 | 0.995 | 1.04 | 1.03 | 0.929 | 0.532 | 0.59 | 0.595 | 0.538 | 0.396 | 0.848 | 0.8 | 0.828 | 0.815
2 | SW 1573 | 0.984 | 0.718 | 0.81 | 0.671 | 0.614 | 1.03 | 0.84 | 0.851 | 0.922 | 0.653 | 0.517 | 0.558 | 0.479 | 0.482 | 0.805 | 0.727 | 0.74 | 0.673
